Test results: patent US7687510B2, “Pyrimidinone derivatives as therapeutic agents against acute and chronic inflammatory, ischaemic and remodelling processes” (Bayer Healthcare AG, priority 2002, dated 2010)

biological target: T1, human neutrophil elastase (HNE) (Homo sapiens, UniProt P08246); assay: In vitro inhibition of HNE using a fluorogenic peptide substrate (continuous read-out signal, 384 MTP assay format); type: biochemical; details: substrate MeOSuc-Ala-Ala-Pro-Val-AMC, 37° C.
T1 construct: purchased SERVA Electrophoresis GmbH, Heidelberg, Germany #20927.01
T1 sequence (P08246 30-267): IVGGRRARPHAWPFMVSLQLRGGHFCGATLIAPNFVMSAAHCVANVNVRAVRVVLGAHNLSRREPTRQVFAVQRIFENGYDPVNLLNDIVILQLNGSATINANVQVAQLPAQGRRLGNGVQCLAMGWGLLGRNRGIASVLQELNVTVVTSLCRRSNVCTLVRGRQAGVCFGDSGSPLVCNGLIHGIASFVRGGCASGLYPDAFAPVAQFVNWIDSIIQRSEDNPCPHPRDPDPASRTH
Description: I. In vitro Enzyme Assays of Human Neutrophil Elastase (HNE)
assay buffer: 0.1 M HEPES-NaOH buffer pH 7.4, 0.5 M NaCl, 0.1% (w/v) bovine serum albumin;
suitable concentration (see below) of substrate in assay buffer;
suitable concentration of test compounds diluted with assay buffer from a 10 mM stock solution in DMSO.
The test solution is prepared by mixing 10 μl of test compound dilution, 20 μl of HNE enzyme dilution (final concentration 8-0.4 μU/ml, routinely 2.1 μU/ml) and 20 μl of substrate dilution (final concentration 1 mM-1 μM, routinely 20 μM), respectively. The solution is incubated for 0-2 hrs at 37° C. (routinely one hour). The florescence of the liberated AMC due to the enzymatic reaction is measured at 37° C. (TECAN spectra fluor plus plate reader). […] IC50 values are determined by RFU-versus-[I] plots. Km and Km(app.) values are determined by Lineweaver-Burk inverted to Ki values by Dixon plots.

| Compound | IC50 |
| --- | --- |
| N#CC1=C(N)N(c2cccc(C(F)(F)F)c2)C(=O)NC1c1ccc(C#N)cc1 (stereo not shown) [Example 9, 6-Amino-4-(4-cyanophenyl)-2-oxo-1-[3-(trifluoromethyl)phenyl]-1,2,3,4-tetrahydro-5-pyrimidinecarbonitrile] | 40 nM |
| CCOC(=O)C1=C(C)N(c2cccc(C(F)(F)F)c2)C(=O)N(C)C1c1ccc(C#N)cc1 (stereo not shown) [Example 14, Ethyl 4-(4-cyanophenyl)-3,6-dimethyl-2-oxo-1-[3-(trifluoromethyl)phenyl]-1,2,3,4-tetrahydro-5-pyrimidinecarboxylate] | 5 nM |
| CCOC(=O)C1=C(C)N(c2cccc(C(F)(F)F)c2)C(=O)N(C(C)=O)C1c1ccc(C#N)cc1 (stereo not shown) [Example 15, Ethyl 3-acetyl-4-(4-cyanophenyl)-6-methyl-2-oxo-1-[3-(trifluoromethyl)phenyl]-1,2,3,4-tetrahydro-5-pyrimidinecarboxylate] | 8 nM |
| CCOC(=O)C1=C(C)N(c2cccc(C(F)(F)F)c2)C(=O)N(C(=O)OCC)C1c1ccc(C#N)cc1 (stereo not shown) [Example 16, Diethyl 6-(4-cyanophenyl)-4-methyl-2-oxo-3-[3-(trifluoromethyl)phenyl]-3,6-di-hydro-1,5(2H)-pyrimidinedicarboxylate] | 10 nM |
| CCOC(=O)C1=C(CN(CC)CC)N(c2cccc(C(F)(F)F)c2)C(=O)NC1c1ccc(C#N)cc1 (stereo not shown) [Example 20, Ethyl 4-(4-cyanophenyl)-6-[(diethylamino)methyl]-2-oxo-1-[3-(trifluoromethyl)-phenyl]-1,2,3,4-tetrahydro-5-pyrimidinecarboxylate] | 700 nM |
| CCOC(=O)C1=C(C)N(c2cccc(C(F)(F)F)c2)C(=O)NC1c1ccc(C#N)nc1 (stereo not shown) [Example 24, Ethyl 4-(6-cyano-3-pyridinyl)-6-methyl-2-oxo-1-[3-(trifluoromethyl)phenyl]-1,2,3,4-tetrahydro-5-pyrimidinecarboxylate] | 13 nM |
| CC1=C(C(=O)OCCc2ccncc2)C(c2ccc(C#N)cc2)NC(=O)N1c1cccc(C(F)(F)F)c1 (stereo not shown) [Example 28, 2-(4-Pyridinyl)ethyl 4-(4-cyanophenyl)-6-methyl-2-oxo-1-[3-(trifluoromethyl)phenyl]-1,2,3,4-tetrahydro-5-pyrimidinecarboxylate] | 50 nM |
| CC1=C(C(=O)N(C)C)C(c2ccc(C#N)cc2)NC(=O)N1c1cccc(C(F)(F)F)c1 (stereo not shown) [Example 58] | 1100 nM |
| CCOC(=O)C1=C(C)N(c2cccc(C(F)(F)F)c2)C(=O)N(CC(=O)N2CCN(C)CC2)C1c1ccc(C#N)cc1 (stereo not shown) [Example 60] | 5 nM |
| CCOC(=O)C1=C(C)N(c2cccc(C(F)(F)F)c2)C(=O)NC1c1cccc([N+](=O)[O-])c1 (stereo not shown) [Example 103, Ethyl 6-methyl-4-(3-nitrophenyl)-2-oxo-1-[3-(trifluoromethyl)phenyl]-1,2,3,4-tetra-hydro-5-pyrimidinecarboxylate] | 60 nM |
| CCOC(=O)C1=C(C)N(c2cccc(C(F)(F)F)c2)C(=O)NC1c1ccc([N+](=O)[O-])cc1 (stereo not shown) [Example 110, Ethyl 6-methyl-4-(4-nitrophenyl)-2-oxo-1-[3-(trifluoromethyl)phenyl]-1,2,3,4-tetra-hydropyrimidine-5-carboxylate] | 50 nM |

system: human polymorphonuclear cells (PMNs); assay: In vitro PMN elastolysis assay (tritiated elastin); type: cell-based; details: at 1.2 μM; mean±s.e.m.; n=3 different donors at 3.6×10^5 cells per well
Description: In Vitro PMN Elastolysis Assay:
This assay is used to determine the elastolytic potential of human polymorphonuclear cells (PMNs) and assess the proportion of degradation due to neutrophil elastase [cf. Z. W. She et al., Am. J. Respir. Cell. Mol. Biol. 9, 386-392 (1993)].
Tritiated elastin, in suspension, is coated on to a 96 well plate at 10 μg per well. Test and reference [ZD-0892 (J. Med. Chem. 40, 1876-1885, 3173-3181 (1997), WO 95/21855) and α1 protease inhibitor (α1PI)] compounds are added to the wells at the appropriate concentrations. […] Porcine pancreatic elastase (1.3 μM is used as a positive control for the assay, and α1PI (1.2 μM) is used as the positive inhibitor of neutrophil elastase. The cellular control is PMNs without compound at each appropriate cell density. The cells plus compounds are incubated in a humidified incubator at 37° C. for 4 hours. The plates are centrifuged to allow the harvest of cell supernatant only. The supernatant is transferred in 75 μl volumes to corresponding wells of a 96 well Lumaplate™ (solid scintillant containing plates). The plates are dried until no liquid is visible in the wells and read in a beta counter for 3 minutes per well. […]
The compounds of this invention are evaluated for their inhibitory activity in this HNE-dependent model of neutrophil elastolysis.

| Compound | inhibition of elastolysis |
| --- | --- |
| α1PI: α1 protease inhibitor, reference and positive inhibitor of neutrophil elastase | 83.46±3.97% |

same assay, conditions: mean±s.e.m.; n=2 different donors at 3.6×10^5 cells per well

| Compound | IC50 |
| --- | --- |
| COc1ccc(C(=O)N[C@H](C(=O)N2CCC[C@H]2C(=O)N[C@H](C(=O)C(F)(F)F)C(C)C)C(C)C)cc1 [ZD-0892] | 45.5 ± 7.75 nM |
